# pIC50: −log10 of the molar value. Like-named read-outs stand apart in the source and are kept apart here.
# System: PMA-differentiated THP-1 cells
# Test: IL-1β production in PMA-differentiated THP-1 cells stimulated with gramicidin (hTHP-1 assay containing 2% fetal bovine serum; Procedures 1 and 2)
# Format: cell-based, human
# Details: 2% fetal bovine serum
# Outline: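 THP-1 cells were differentiated with PMA (20 ng/ml, 16-18 h), detached, and plated at 50,000 cells/well in RPMI 1640 with 2% FBS. They were pre-treated with compound (0.0017–100 μM, 0.37% DMSO) for 1 h, then stimulated with gramicidin (5 μM) for 2 h. Supernatant IL-1β was measured by HTRF.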
# [1] = Homo sapiens, THP-1, Table B1, numeric bounds, read-out: Average IC50 of compounds in hTHP-1 assay: hTHP-1 IC50
# [2] = Homo sapiens, THP-1, Table B2, class symbols, read-out: hTHP-1 IC50
# [3] = Table B1, class symbols, read-out: Average IC50 of compounds in hTHP-1 assay: hTHP-1 IC50
smiles,measurement,setting,value
"CC1CCc2c1nc1c(c2NC(=O)N=S(N)(=O)c2sc(C(C)(C)O)nc2CO)CCC1 (single isomer, unassigned) [Compound 168ab, (S,R) or (S,S)-4-(hydroxymethyl)-2-(2-hydroxypropan-2-yl)-N′-((3-methyl-1,2,3,5,6,7-hexahydrodicyclo-penta[b,e]pyridin-8-yl)carbamoyl)thiazole-5-sulfonimidamide]",pIC50,[1],< 4.52
"COC(C)(C)c1ncc(S(N)(=O)=NC(=O)Nc2c3c(nc4c2CCC4)CCC3)s1 (stereo not shown) [Compound 693, N′-((1,2,3,5,6,7-hexahydrodicyclopenta[b,e]pyridin-8-yl)carbamoyl)-2-(2-methoxypropan-2-yl)thiazole-5-sulfonimidamide]",pIC50,[2],5.30 to 6.00
"Cc1c(C2CC2)nc2c(c1NC(=O)N=S(N)(=O)c1sc(C(C)(C)O)cc1F)CCC2 (single isomer, unassigned) [Compound 174a, (R) or (S)-N′-((2-cyclopropyl-3-methyl-6,7-dihydro-5H-cyclopenta[b]pyridin-4-yl)carbamoyl)-3-fluoro-5-(2-hydroxypropan-2-yl)thio-phene-2-sulfonimidamide]",pIC50,[3],4.52 to 5.30
"C[C@@H]1CCc2c1nc1c(c2NC(=O)N=S(N)(=O)c2ncc(C(C)(C)O)s2)CCC1 (stereo partly drawn) [Compound 140c, 5-(2-Hydroxypropan-2-yl)-N′-(((R)-3-methyl-1,2,3,5,6,7-hexahydrodicyclopenta[b,e]pyridin-8-yl)carbamoyl)thiazole-2-sulfonimidamide]",pIC50,[2],6.00 to 6.70
"CC(C)(O)c1ncc(S(N)(=O)=NC(=O)Nc2c3c(nc4c2CCC42CC2)CCC3)s1 (single isomer, unassigned) [Compound 136a, (S) or (R)-2-(2-hydroxy-propan-2-yl)-N′-((1′,5′,6′,7′-tetrahydro-2′H-spiro[cyclopropane-1,3′-dicyclopenta[b,e]pyridin]-8′-yl)carbamoyl)thiazole-5-sulfonimidamide]",pIC50,[3],5.30 to 6.00
"CC(C)(O)c1ccc(S(N)(=O)=NC(=O)Nc2c3c(nc4c2CCC4)CCC3)s1 (single isomer, unassigned) [Compound 149b, (S) or (R)-N′-((1,2,3,5,6,7-hexahydrodicyclo-penta[b,e]pyridin-8-yl)carbamoyl)-5-(2-hydroxypropan-2-yl)thiophene-2-sulfonimidamide]",pIC50,[1],< 4.52
"Cc1c(C(F)(F)F)nc2c(c1NC(=O)N=S(N)(=O)c1cnn3c1OCCC3)CCC2 (single isomer, unassigned) [Example 657, (R) or (S)-N′-((3-((3-2-(trifluoromethyl)-6,7-dihydro-5H-cyclopenta[b]pyridin-4-yl)carbamoyl)-6,7-dihydro-5H-pyrazolo[5,1-b][1,3]oxazine-3-sulfonimidamide]",pIC50,"Homo sapiens, THP-1, Table B3, hTHP-1 assay, class symbols, read-out: IC50",5.30 to 6.00
"Cc1c(C(F)(F)F)nc2c(c1NC(=O)N=S(N)(=O)c1nn(C(C)C)cc1F)CCC2 (stereo not shown) [Example 734, 4-Fluoro-1-isopropyl-N′-((3-methyl-2-(trifluoromethyl)-6,7-dihydro-5H-cyclopenta[b]pyridin-4-yl)carbamoyl)-1H-pyrazole-3-sulfonimidamide]",pIC50,"Homo sapiens, THP-1, Table B4, class symbols, read-out: hTHP-1 IC50",6.00 to 6.70
"CC1CCc2c1nc1c(c2NC(=O)N=S(N)(=O)c2ncc(C(C)(C)O)s2)CCC1 (single isomer, unassigned) [Compound 140ab, (R,S) or (R,R)-5-(2-hydroxypropan-2-yl)-N′-((3-methyl-1,2,3,5,6,7-hexa-hydrodicyclo-penta[b,e]pyridin-8-yl)carbamoyl)thiazole-2-sulfonimidamide]",pIC50,[3],5.30 to 6.00
"Cc1c(C2CC2)nc2c(c1NC(=O)N=S(N)(=O)c1cnn3c1OCCC3)CCC2 (single isomer, unassigned) [Compound 306b, (R) or (S)-N′-((2-cyclopropyl-3-methyl-6,7-dihydro-5H-cyclopenta[b]pyridin-4-yl)carbamoyl)-6,7-dihydro-5H-pyrazolo[5,1-b][1,3] oxazine-3-sulfonimidamide]",pIC50,[2],4.52 to 5.30
